From patent US10328114B2, “Lung injury repair compositions and methods” (University of Iowa Research Foundation, priority 2015, dated 2019)
“Also recorded” adds a separate entry of the source. *: point of attachment. Myristoyl = CCCCCCCCCCCCCC(=O)*

Experiments:
[1] = tested on: bleomycin induced lung inflammation; experiment: Lung inflammation and cell death in bleomycin ALI model (BALF cell and neutrophil count, IL-1β, TUNEL); type: in vivo, mouse
Description: (§1) Animal protocols were approved by the Institutional Animal Care and Use Committee at the University of Iowa. C57BL/6 mice (Jackson Laboratories, Bar Harbor, Me.) were anesthetized followed by intratracheal instillation of: (A) Control (Ctrl): 1 μl of DMSO (Sigma, St. Louis, Mo.) plus 49 μl of PBS; (B) Bleomycin (Bleo): 1 μl of DMSO plus 49 μl of bleomycin (APP pharmaceuticals, LLC Schaumburg, Ill.) dissolved in PBS (4 U/kg); (C) Bleomycin/PKCζi (Bleo/PKCζi): 1 μg of PKCζi (Calbiochem EMD Biosciences, San Diego, Calif.) solubilized in 1 μl of DMSO plus 49 μl of bleomycin (4 U/Kg) dissolved in PBS (Calbiochem EMD Biosciences, San Diego, Calif.). After this treatment, all mice were instilled (50 μl) every 72 hours with 1 μl of DMSO plus 49 μl of PBS in the Ctrl and Bleo group or with 1 μg of PKCζi dissolved in 1 μl of DMSO plus 49 μl of PBS in the Bleo/PKCζi group for the duration of the experiment. Mice were treated for up to 6 weeks (FIG. 1A). All conditions had between 4 to 6 animals.
After dissection, immunofluorescence labeling was performed on frozen mouse lung tissue sections with polyclonal anti p-PKCζ (Santa Cruz Biotechnology, Dallas, Tex.) or monoclonal β4 antibody (Clone 346-11a, BD Biosciences, San Jose, Calif.) (23). In addition, Terminal deoxynucleotidyltransferase dUTP nick end labeling (TUNEL) staining was performed on week 1 mouse lung tissue sections (24).
(§2) Bronchoalveolar lavage was performed as previously described (18). Total cell count was examined by hemocytometer and the percent of neutrophils cells in the bronchoalveolar lavage fluid (BALF) by cytospin slides stained with Wright's-Giemsa. Total protein concentration was measured by Bradford assay (Bio-Rad, Hercules, Calif.).
(§3) Mouse IL-1β and active transforming growth factor beta (TGFβ) were measured using an ELISA from R&D Biosystems (Minneapolis, Minn.).

[2] = tested on: integrin β4^+ DLEP cells; experiment: Isolated integrin β4+ DLEP cell colony proliferation in matrigel; type: cell-based, mouse; settings: for number of β4+ colonies: PKCζi 520 nM, two weeks, media with 20% BALF from bleomycin injured mice, vs PBS and DMSO
Description: (8) PKC-ζi promotes proliferation of distal lung epithelial progenitor cells. Recently Chapman et al reported that integrin α6β4 identifies a population of lung cells with regenerative potential in mice (Chapman et al. (2011). “Integrin alpha6beta4 identifies an adult distal lung epithelial population with regenerative potential in mice.” J Clin Invest 121(7): 2855-2862). Furthermore, Li et al, reported same population in human lungs (Li et al. (2013). “Integrin alpha6beta4 identifies human distal lung epithelial progenitor cells with potential as a cell-based therapy for cystic fibrosis lung disease.” PLoS One 8(12): e83624). Therefore, the inventors set out to examine by immunofluorescence the presence of these cells in mouse lungs at 3 and 6 weeks after bleomycin treatment. […] In addition, the inventors isolated mouse α6β4 cells and treated them for 2 weeks with PKC-ζi ([…]).
Integrin β4^+ cells were isolated using flow cytometry and were seeded in matrigel as previously described with modifications (23). Cells were grown for two weeks in the presence of PBS, DMSO (1:1000) or PKCζi (1:1000, 520 nM final concentration PKC). In order to recreate the microenvironment, the media was supplemented with 20% BALF from bleomycin treated mice from week 1 similar to previously described (4).
To test the hypothesis that PKCζ can promote proliferation of β4^+ DLEP cells, integrin β4^+ cells were isolated and the media was supplemented with BALF from bleomycin treated mice from week 1 in the presence of PBS, DMSO or […], in order to recreate the microenvironment in a similar approach as Vaughan and colleagues (4). […] As shown in FIGS. 5 C & D, PKCζi increased proliferation of DLEP integrin β4^+ cells in vitro compared to control.

[3] = tested on: active transforming growth factor beta (TGFβ); experiment: Active TGFβ ELISA in bleomycin ALI model; type: in vivo, mouse
Description: as §1, §3

[4] = tested on: bleomycin induced ALI mouse model; experiment: In vivo lung μCT scan in bleomycin ALI model; settings: week 6
Description: as §1
High resolution scanning coupled to a computer controlled respirator to reduce ventilation motion artifacts was performed as described previously (27).

[5] = tested on: bleomycin induced ALI mouse model; experiment: Lung compliance (flexiVent) in bleomycin ALI model; type: in vivo; settings: for lung compliance, PKC-ζi instilled post injury: measured at one week; for lung compliance: week 1 post injury, PKCζi given with bleomycin and every 72 hours
Description: (§4) (4) PKC-ζi partially preserves lung compliance. Briefly, trachea was surgically exposed and tracheal cannula (18 gauge, Angiocath, Becton Dickinson, Sandy, Utah, USA) placed and secure in the lumen. The mice were paralyzed using intraperitoneal rocuronium (1 mg/Kg) to prevent spontaneous breathing and mechanically ventilated on a computer controlled respirator (flexiVent, SCIREQ Inc., Montreal, Canada). The ventilator was set up to deliver tidal volume 6 ml/kg for 10 minutes; respiratory rate of 150 breaths/min; 3 cmH2O positive end expiratory pressure (PEEP). The compliance was determined using the maneuver Pressure-volume ramp volume regulated (PVrV) to calculate the Quasi-static compliance. […] Since lung compliance is the product of an intact epithelial barrier and surfactant production, and PKCζ have been reported to be involved in surfactant production (Gobran et al., (1998). “PKCζ isoforms and other signaling proteins involved in surfactant secretion in developing rat type II cells.” Am J Physiol 274(6 Pt 1): L901-907), the inventors decided to examine by Western blot analysis total amount of SPC in BALF. […] Therefore, our results are likely due to preservation of the alveolar epithelial barrier.
(7) Treatment of mice with PKC-ζi after initial injury continues to be effective in preserving lung compliance. Since the majority of clinical scenarios involve the treatment of patients with established ALI, we set out to examine the effect of PKC-ζi post injury by instilling 6 and 24 hours after bleomycin instillation. Lung compliance was measured at one week.
as §1
Mice were anesthetized, paralyzed and lung function assessed with the flexiVent Legacy. (SCIREQ Inc., Montreal, Canada).

[6] = tested on: surfactant protein C (SPC); experiment: Surfactant protein C (SPC) by Western blot in bleomycin ALI model; type: in vivo, mouse
Description: as §4
Animal protocols were approved by the Institutional Animal Care and Use Committee at the University of Iowa. […]

[7] = tested on: bleomycin induced ALI mouse model; experiment: BALF total protein concentration (alveolar-capillary permeability), Bradford assay; type: in vivo; settings: week 1 post injury
Description: as §1, §2

In the case of “N-Myristoyl-Ser-Ile-Tyr-Arg-Arg-Gly-Ala-Arg-Arg-Trp-Arg-Lys-Leu-OH (Myristoyl-SIYRRGARRWRKL-OH; SMILES CCCCCCCCCCCCCC(=O)N[C@@H](CO)C(=O)N[C@H](C(=O)N[C@@H](Cc1ccc(O)cc1)C(=O)N[C@@H](CCCNC(=N)N)C(=O)N[C@@H](CCCNC(=N)N)C(=O)NCC(=O)N[C@@H](C)C(=O)N[C@@H](CCCNC(=N)N)C(=O)N[C@@H](CCCNC(=N)N)C(=O)N[C@@H](Cc1c[nH]c2ccccc12)C(=O)N[C@@H](CCCNC(=N)N)C(=O)N[C@@H](CCCCN)C(=O)N[C@@H](CC(C)C)C(=O)O)[C@@H](C)CC) [PKCζi]”, the “bleomycin induced inflammatory response” value ([1]; Example 1) is reported as “did not prevent increase in inflammatory response”, the “apoptotic cells by TUNEL+ staining” value ([1]; week 1 lung sections) is reported as “did not prevent the increase in apoptotic cells by TUNEL^+ staining” and the BALF cell count ([1]; week 1 post injury) is reported as “neither prevented the increase in BALF cell and neutrophil count”. For the same substance, the “BALF neutrophil concentration / count” value ([1]; week 1 post injury) was “neither prevented the increase in BALF cell and neutrophil count; also recorded: does not decrease bleomycin induced increase in the BALF neutrophil concentration”, the “IL-1β in BALF” value ([1]; week 1 post injury) was “nor prevented the increase in IL-1β concentration; also recorded: does not decrease IL-1β release into BALF” and the “number of isolated mouse α6β4 cells” value ([2]; Example 1, treated for 2 weeks, concentration not given, vs DMSO) was “increased the number of α6β4 cells compared to DMSO treated cells”. For the same substance, the “number of β4+ colonies” value [2] was “increased number of large colonies compared to either DMSO or the PBS group”, the “number of β4+ colonies” value ([2]; listed as PKC-ζi) was “increased the number of β4^+ colonies compared to PBS and DMSO at week 2” and the “active TGF β” value ([3]; week 3 post injury) was “no difference in active TGF β and hydroxyproline concentrations compared to bleomycin group; also recorded: does not prevent bleomycin induced TGF β activation”. For the same substance, the “active TGF β” value ([3]; week 3 post injury, listed as PKC-ζi) was “significantly elevated in both groups”, the “active TGF β” value ([3]; week 6) was “prevents bleomycin induced active TGF β at week 6” and the “lung injury on μCT” value [4] was “confirmed lung injury resolution; also recorded: complete resolution in the PKCζi group at week 6”. The “lung injury on μCT” value ([4]; listed as PKC-ζi) was “confirmed lung injury resolution”, the “lung compliance, PKC-ζi instilled post injury” value ([5]; instillation 6 hours after bleomycin) was “prevented the decrease in lung compliance” and the “lung compliance, PKC-ζi instilled post injury” value ([5]; instillation 24 hours after bleomycin) was “no protective effect”. For the same substance, the lung compliance [5] was “partial but statistically significant prevention in the lung compliance decrease compared to bleomycin alone group; also recorded: preserves lung compliance compare to bleomycin”, the lung compliance ([5]; listed as PKC-ζi) was “partially preserve lung compliance compared to control” and the “total amount of SPC in BALF (Western blot)” value ([6]; Example 1) was “did not prevent a reduction in SPC”. For the same substance, the “total SPC in whole lungs (Western blot)” value ([6]; week 1, Example 2) was “did not prevent the reduction in SPC caused by bleomycin injury; also recorded: does not prevent total SPC decrease in the lungs”, the BALF protein concentration [7] was “prevented the increase in mice BALF protein concentration compared to bleomycin group; also recorded: prevents increase in BALF protein concentration in bleomycin treated mice” and the BALF protein concentration ([7]; listed as PKC-ζ inhibitor) was “prevents increased protein content in BAL in bleomycin induced ALI”.
